Experimental data reported in ChEMBL document CHEMBL1148480, “Structure-activity studies of orexin a and orexin B at the human orexin 1 and orexin 2 receptors led to orexin 2 receptor selective and orexin 1 receptor preferring ligands” (J Med Chem, 2004).
Starred links: 1 amine or outer side, 2 acyl side, 3 side chain; linkers in the order of their positions; H or OH if unused. Non-standard residues stand in square brackets, D forms with d. Residues, ends and D or L forms follow the SMILES beside them. Groups on a side chain read outwards from the residue. X2 = N=C(N)NCCC[C@@H](C(=O)[*:2])N(CCCCCC(=O)[C@H](CC(=O)O)N[*:3])[*:1]; pGlu = O=C1CC[C@@H](C(=O)O)N1

target: T1, Orexin receptor type 2 (Homo sapiens, UniProt O43614); test: Effective agonist concentration to the human Orexin receptor type 2 was determined using the Xlfit program; assay type: functional
T1 sequence (O43614 whole entry): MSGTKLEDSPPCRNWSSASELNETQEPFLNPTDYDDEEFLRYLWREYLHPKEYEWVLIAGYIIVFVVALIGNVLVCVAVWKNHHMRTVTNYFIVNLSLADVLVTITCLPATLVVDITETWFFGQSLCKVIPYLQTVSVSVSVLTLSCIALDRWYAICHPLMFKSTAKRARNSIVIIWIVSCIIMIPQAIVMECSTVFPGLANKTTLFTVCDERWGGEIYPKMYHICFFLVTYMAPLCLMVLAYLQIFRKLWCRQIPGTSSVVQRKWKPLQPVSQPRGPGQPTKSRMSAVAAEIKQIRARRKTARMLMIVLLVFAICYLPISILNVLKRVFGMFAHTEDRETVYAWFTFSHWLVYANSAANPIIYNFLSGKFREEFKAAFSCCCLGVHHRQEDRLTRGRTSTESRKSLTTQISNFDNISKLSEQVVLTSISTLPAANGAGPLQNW

Compound	EC50 [µM]
CC[C@H](C)[C@H](NC(=O)CNC(=O)[C@H](C)NC(=O)[C@H](C)NC(=O)[C@H](Cc1cnc[nH]1)NC(=O)[C@H](CC(N)=O)NC(=O)CNC(=O)[C@H](CO)NC(=O)[C@H](C)NC(=O)[C@H](CCC(N)=O)NC(=O)[C@H](CC(C)C)NC(=O)[C@H](CC(C)C)NC(=O)[C@@H]1CCCN1C(=O)[C@H](CCC(N)=O)NC(=O)[C@H](CC(C)C)NC(=O)[C@H](CCCNC(=N)N)NC(=O)CNC(=O)[C@H](CCC(N)=O)NC(=O)[C@H](CC(C)C)NC(=O)CN)C(=O)N[C@@H](CC(C)C)C(=O)N[C@H](C(=O)N[C@@H](CCSC)C(=O)O)[C@@H](C)O (H-GLQGRLQPLLQASGNHAAGILTM-OH)	0.68
CC[C@H](C)[C@H](NC(=O)CNC(=O)[C@H](C)NC(=O)[C@H](C)NC(=O)[C@@H](N)Cc1cnc[nH]1)C(=O)N[C@@H](CC(C)C)C(=O)N[C@H](C(=O)N[C@@H](CC(C)C)C(=O)O)[C@@H](C)O (H-HAAGILTL-OH)	> 1000
CC[C@H](C)[C@H](NC(=O)CNC(=O)[C@H](C)NC(=O)[C@H](C)NC(=O)[C@H](Cc1c[nH]cn1)NC(=O)[C@H](CC(N)=O)NC(=O)CN)C(=O)N[C@@H](CC(C)C)C(=O)N[C@H](C(=O)N[C@@H](CC(C)C)C(=O)O)[C@@H](C)O (H-GNHAAGILTL-OH)	> 1000
CC[C@H](C)[C@H](NC(=O)CNC(=O)[C@H](C)NC(=O)[C@H](C)NC(=O)[C@H](Cc1c[nH]cn1)NC(=O)[C@H](CC(N)=O)NC(=O)CNC(=O)[C@H](CO)NC(=O)[C@H](C)NC(=O)[C@H](CCC(N)=O)NC(=O)[C@H](CC(C)C)NC(=O)[C@H](CC(C)C)NC(=O)[C@H](CCCN=C(N)N)NC(=O)[C@@H]1CCCN1C(=O)[C@H](CC(C)C)NC(=O)[C@H](CCCN=C(N)N)NC(=O)CNC(=O)[C@H](CCC(N)=O)NC(=O)[C@H](CC(C)C)NC(=O)CN)C(=O)N[C@@H](CC(C)C)C(=O)N[C@H](C(=O)N[C@@H](CCSC)C(=O)O)[C@@H](C)O (stereo in doubt; form 2)	0.36
CC[C@H](C)[C@H](NC(=O)CNC(=O)[C@H](C)NC(=O)[C@H](C)NC(=O)[C@H](Cc1cnc[nH]1)NC(=O)[C@H](CC(N)=O)NC(=O)CNC(=O)[C@H](CO)NC(=O)[C@H](C)NC(=O)[C@H](CCC(N)=O)NC(=O)[C@H](CC(C)C)NC(=O)[C@H](CC(C)C)NC(=O)[C@H](CCCNC(=N)N)NC(=O)[C@H](CCC(N)=O)NC(=O)[C@@H]1CCCN1C(=O)[C@H](CCCNC(=N)N)NC(=O)CNC(=O)[C@H](CCC(N)=O)NC(=O)[C@H](CC(C)C)NC(=O)CN)C(=O)N[C@@H](CC(C)C)C(=O)N[C@H](C(=O)N[C@@H](CCSC)C(=O)O)[C@@H](C)O (H-GLQGRPQRLLQASGNHAAGILTM-OH)	0.79
CC[C@H](C)[C@H](NC(=O)CNC(=O)[C@H](C)NC(=O)[C@H](C)NC(=O)[C@H](Cc1cnc[nH]1)NC(=O)[C@H](CC(N)=O)NC(=O)CNC(=O)[C@H](CO)NC(=O)[C@H](C)NC(=O)[C@H](CCC(N)=O)NC(=O)[C@H](CC(C)C)NC(=O)[C@H](CC(C)C)NC(=O)[C@H](CCCNC(=N)N)NC(=O)[C@H](CCC(N)=O)NC(=O)[C@H](CC(C)C)NC(=O)[C@H](CCCNC(=N)N)NC(=O)CNC(=O)[C@@H](N)CCC(N)=O)C(=O)N[C@@H](CC(C)C)C(=O)N[C@H](C(=O)N[C@@H](CCSC)C(=O)O)[C@@H](C)O (H-QGRLQRLLQASGNHAAGILTM-OH)	1.22
CC[C@H](C)[C@H](NC(=O)CNC(=O)[C@H](C)NC(=O)[C@H](C)NC(=O)[C@H](Cc1cnc[nH]1)NC(=O)[C@H](CC(N)=O)NC(=O)CNC(=O)[C@H](C)NC(=O)CNC(=O)[C@H](Cc1cnc[nH]1)NC(=O)[C@H](CC(C)C)NC(=O)[C@H](CC(C)C)NC(=O)[C@H](CCC(=O)O)NC(=O)[C@H](Cc1ccc(O)cc1)NC(=O)[C@H](CC(C)C)NC(=O)[C@H](CCCNC(=N)N)NCCCCCC(=O)[C@H](CC(=O)O)NC(=O)[C@@H]1CCCN1C(=O)[C@H](CC(C)C)NC(=O)[C@@H]1CCCN1C(=O)[C@@H]1CCC(=O)N1)C(=O)N[C@@H](CC(C)C)C(=O)N[C@H](C(=O)N[C@@H](CC(C)C)C(=O)O)[C@@H](C)O (H-[X2]([Pro-Leu-Pro-pGlu])LYELLHGAGNHAAGILTL-OH)	0.64
CC[C@H](C)[C@H](NC(=O)CNC(=O)[C@H](C)NC(=O)[C@H](C)NC(=O)[C@H](Cc1c[nH]cn1)NC(=O)[C@H](CC(N)=O)NC(=O)CNC(=O)[C@H](CO)NC(=O)[C@H](C)NC(=O)[C@H](CCC(N)=O)NC(=O)[C@H](CC(C)C)NC(=O)[C@H](CC(C)C)NC(=O)[C@H](CCCN=C(N)N)NC(=O)[C@@H]1CCCN1C(=O)[C@H](CC(C)C)NC(=O)[C@H](CCCN=C(N)N)NC(=O)CNC(=O)[C@H](CCC(N)=O)NC(=O)[C@H](CC(C)C)NC(=O)CN)C(=O)N[C@@H](CC(C)C)C(=O)N[C@H](C(=O)N[C@@H](CCSC)C(=O)O)[C@@H](C)O (stereo in doubt; form 1)	0.28
CC[C@H](C)[C@H](NC(=O)CNC(=O)[C@H](C)NC(=O)[C@H](C)NC(=O)[C@H](Cc1cnc[nH]1)NC(=O)[C@H](CC(N)=O)NC(=O)CNC(=O)[C@H](CO)NC(=O)[C@H](C)NC(=O)[C@H](CCC(N)=O)NC(=O)[C@H](CC(C)C)NC(=O)[C@H](CC(C)C)NC(=O)[C@H](CCCNC(=N)N)NC(=O)[C@H](CCC(N)=O)NC(=O)[C@H](CC(C)C)NC(=O)[C@H](CCCNC(=N)N)NC(=O)CNC(=O)[C@H](CCC(N)=O)NC(=O)[C@@H]1CCCN1C(=O)CN)C(=O)N[C@@H](CC(C)C)C(=O)N[C@H](C(=O)N[C@@H](CCSC)C(=O)O)[C@@H](C)O (H-GPQGRLQRLLQASGNHAAGILTM-OH)	0.06
CC[C@H](C)[C@H](NC(=O)CNC(=O)[C@H](C)NC(=O)[C@H](C)NC(=O)[C@H](Cc1cnc[nH]1)NC(=O)[C@H](CC(N)=O)NC(=O)CNC(=O)[C@H](CO)NC(=O)[C@H](C)NC(=O)[C@H](CCC(N)=O)NC(=O)[C@H](CC(C)C)NC(=O)[C@H](CC(C)C)NC(=O)[C@H](CCCNC(=N)N)NC(=O)[C@H](CCC(N)=O)NC(=O)[C@H](CC(C)C)NC(=O)[C@H](CCCNC(=N)N)NC(=O)CNC(=O)[C@H](C)NC(=O)[C@H](CC(C)C)NC(=O)CN)C(=O)N[C@@H](CC(C)C)C(=O)N[C@H](C(=O)N[C@@H](CCSC)C(=O)O)[C@@H](C)O (H-GLAGRLQRLLQASGNHAAGILTM-OH)	0.24
CC[C@H](C)[C@H](NC(=O)CNC(=O)[C@H](C)NC(=O)[C@H](C)NC(=O)[C@H](Cc1cnc[nH]1)NC(=O)[C@H](CC(N)=O)NC(=O)CNC(=O)[C@H](CO)NC(=O)[C@H](C)NC(=O)[C@H](CCC(N)=O)NC(=O)[C@H](CC(C)C)NC(=O)[C@@H](N)CC(C)C)C(=O)N[C@@H](CC(C)C)C(=O)N[C@H](C(=O)N[C@@H](CCSC)C(=O)O)[C@@H](C)O (H-LLQASGNHAAGILTM-OH)	> 1000
CC[C@H](C)[C@H](NC(=O)[C@H](Cc1cnc[nH]1)NC(=O)[C@H](CC(N)=O)NC(=O)CNC(=O)[C@H](CO)NC(=O)[C@H](C)NC(=O)[C@H](CCC(N)=O)NC(=O)[C@H](CC(C)C)NC(=O)[C@H](CC(C)C)NC(=O)[C@H](CCCNC(=N)N)NC(=O)[C@H](CCC(N)=O)NC(=O)[C@H](CC(C)C)NC(=O)[C@H](CCCNC(=N)N)NC(=O)CNC(=O)[C@H](CCC(N)=O)NC(=O)[C@H](CC(C)C)NC(=O)CN)C(=O)N[C@@H](C)C(=O)NCC(=O)N[C@@H](C)C(=O)N[C@@H](CC(C)C)C(=O)N[C@H](C(=O)N[C@@H](CCSC)C(=O)O)[C@@H](C)O	3.15
